Test results: US20090325964A1, “Piperazine Metabotropic Glutamate Receptor 5 (MGLUR5) Negative Allosteric Modulators For Anxiety/Depression” (Wyeth, priority 2008, published 2009)
pKi: −log10 of the molar value.

Molecular target: T1, rat mGluR5 receptor (Rattus norvegicus, UniProt P31424)
T1 construct: expressed in transfected cells; host or cells: HEK-293
Experiment: [3H]-MPEP displacement binding assay, HEK-293 cell membranes expressing rat mGluR5
Conditions: Biological Activity, Table 2A; for inhibition at 10 µM: @ 10 μM compound, read-out: PCT INHIB (%) @ 10 μM; for pKi: read-out: Median Ki
Procedure, shortened: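 Membranes from HEK-293 cells expressing rat mGluR5 (12-25 μg protein), incubated 60 min at room temperature with 4 nM [3H]-MPEP in 50 mM Tris pH 7.5, then filtered. Nonspecific binding defined with 10 μM MPEP.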

T1 sequence (P31424 21-1203): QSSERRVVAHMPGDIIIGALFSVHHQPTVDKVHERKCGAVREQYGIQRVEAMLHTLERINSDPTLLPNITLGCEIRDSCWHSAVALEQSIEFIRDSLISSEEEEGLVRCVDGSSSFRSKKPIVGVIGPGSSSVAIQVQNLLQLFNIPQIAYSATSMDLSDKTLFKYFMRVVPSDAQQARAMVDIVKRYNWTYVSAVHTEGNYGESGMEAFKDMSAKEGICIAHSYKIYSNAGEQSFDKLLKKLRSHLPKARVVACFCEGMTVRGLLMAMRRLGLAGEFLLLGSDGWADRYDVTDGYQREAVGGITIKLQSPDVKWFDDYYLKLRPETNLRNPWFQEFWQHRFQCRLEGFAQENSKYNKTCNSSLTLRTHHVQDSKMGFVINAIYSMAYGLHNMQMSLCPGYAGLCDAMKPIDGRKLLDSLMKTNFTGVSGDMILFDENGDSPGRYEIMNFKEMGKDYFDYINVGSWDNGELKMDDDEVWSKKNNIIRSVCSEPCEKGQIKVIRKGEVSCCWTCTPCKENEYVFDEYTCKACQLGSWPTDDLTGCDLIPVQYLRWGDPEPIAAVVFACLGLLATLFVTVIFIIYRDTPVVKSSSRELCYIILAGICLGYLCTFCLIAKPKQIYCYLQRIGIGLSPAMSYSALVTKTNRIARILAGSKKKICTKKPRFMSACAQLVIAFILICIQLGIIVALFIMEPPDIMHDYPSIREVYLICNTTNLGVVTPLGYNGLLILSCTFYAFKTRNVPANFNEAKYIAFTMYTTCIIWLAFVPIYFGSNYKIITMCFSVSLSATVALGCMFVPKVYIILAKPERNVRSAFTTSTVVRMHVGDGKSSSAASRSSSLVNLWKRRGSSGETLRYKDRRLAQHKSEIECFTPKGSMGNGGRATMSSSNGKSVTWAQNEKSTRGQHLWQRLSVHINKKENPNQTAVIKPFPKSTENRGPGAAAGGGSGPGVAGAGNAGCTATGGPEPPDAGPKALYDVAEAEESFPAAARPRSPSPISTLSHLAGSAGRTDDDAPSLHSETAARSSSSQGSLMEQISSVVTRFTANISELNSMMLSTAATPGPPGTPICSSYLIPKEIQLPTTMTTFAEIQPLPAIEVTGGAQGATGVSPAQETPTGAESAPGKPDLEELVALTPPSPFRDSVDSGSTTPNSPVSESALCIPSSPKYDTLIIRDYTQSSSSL

inhibition at 10 µM [%]	pKi	Compound
84	6.47	Cc1ccnc(N2CCN(C(=O)c3ccnc(C#Cc4ccccc4)c3)CC2)c1 [Compound 124, 1-(4-methylpyridin-2-yl)-4-[2-(phenylethynyl)isonicotinoyl]piperazine]
30		Cc1cccc(N2CCN(C(=O)c3ccnc(C#Cc4ccccc4)c3)CC2)n1 [Compound 125, 1-(6-methylpyridin-2-yl)-4-[2-(phenylethynyl)isonicotinoyl]piperazine]
54		O=C(c1ccnc(C#Cc2ccccc2)c1)N1CCN(c2cccc(C(F)(F)F)n2)CC1 [Compound 126, 1-[2-(phenylethynyl)isonicotinoyl]-4-[6-(trifluoromethyl)pyridin-2-yl]piperazine]
36		O=C(c1ccnc(C#Cc2ccccc2)c1)N1CCN(c2cnccn2)CC1 [Compound 127, 2-{4-[2-(phenylethynyl)isonicotinoyl]piperazin-1-yl}pyrazine]
48		N#Cc1ccc(N2CCN(C(=O)c3cccc(C#Cc4ccccc4)c3)CC2)nc1 [Compound 128, 6-{4-[3-(phenylethynyl)benzoyl]piperazin-1-yl}nicotinonitrile]
45		O=C(c1cccc(C#Cc2ccccc2)c1)N1CCN(c2ncccc2C(F)(F)F)CC1 [Compound 129, 1-[3-(phenylethynyl)benzoyl]-4-[3-(trifluoromethyl)pyridin-2-yl]piperazine]
47		O=C(c1cncc(C#Cc2ccccc2)c1)N1CCN(c2ncccn2)CC1 [Compound 130, 2-(4-{[5-(phenylethynyl)pyridin-3-yl]carbonyl}piperazin-1-yl)pyrimidine]
0		N#Cc1ccc(N2CCN(C(=O)c3cncc(C#Cc4ccccc4)c3)CC2)nc1 [Compound 131, 6-(4-{[5-(phenylethynyl)pyridin-3-yl]carbonyl}piperazin-1-yl)nicotinonitrile]
0		O=C(c1cncc(C#Cc2ccccc2)c1)N1CCN(c2ccc(C(F)(F)F)cn2)CC1 [Compound 132, 1-{[5-(phenylethynyl)pyridin-3-yl]carbonyl}-4-[5-(trifluoromethyl)pyridin-2-yl]piperazine]
52	6.19	Cc1ccnc(N2CCN(C(=O)c3cncc(C#Cc4ccccc4)c3)CC2)c1 [Compound 133, 1-(4-methylpyridin-2-yl)-4-{[5-(phenylethynyl)pyridin-3-yl]carbonyl}piperazine]
0		O=C(c1cncc(C#Cc2ccccc2)c1)N1CCN(c2ncccc2C(F)(F)F)CC1 [Compound 134, 1-{[5-(phenylethynyl)pyridin-3-yl]carbonyl}-4-[3-(trifluoromethyl)pyridin-2-yl]piperazine]

The remaining lines, values behind:

Compound	inhibition at 10 µM [%]	pKi
O=C(c1cccc(C#Cc2ccccn2)c1)N1CCN(c2cncc(Cl)n2)CC1 [Compound 104, 2-chloro-6-{4-[3-(pyridin-2-ylethynyl)benzoyl]piperazin-1-yl}pyrazine]	71	5.84
CC1CN(C(=O)c2cccc(C#Cc3ccccn3)c2)CCN1c1ccccn1 (stereo not drawn) [Compound 105, 2-methyl-1-pyridin-2-yl-4-[3-(pyridin-2-ylethynyl)benzoyl]piperazine]	58	6.08
O=C(c1cccc(C#Cc2ccccn2)c1)N1CCN(c2nccc(-c3ccccc3)n2)CC1 [Compound 106, 4-phenyl-2-{4-[3-(pyridin-2-ylethynyl)benzoyl]piperazin-1-yl}pyrimidine]	86	8.66
O=C(c1cccc(C#Cc2ccccc2)c1)N1CCN(c2ccc(C(F)(F)F)cn2)CC1 [Compound 108, 1-[3-(phenylethynyl)benzoyl]-4-[5-(trifluoromethyl)pyridin-2-yl]piperazine]	0	
Cc1cccc(N2CCN(C(=O)c3cccc(C#Cc4ccccc4)c3)CC2)n1 [Compound 110, 1-(6-methylpyridin-2-yl)-4-[3-(phenylethynyl)benzoyl]piperazine]	68	5.47
Cc1cc(C)nc(N2CCN(C(=O)c3cccc(C#Cc4ccccc4)c3)CC2)n1 [Compound 111, 4,6-dimethyl-2-{4-[3-(phenylethynyl)benzoyl]piperazin-1-yl}pyrimidine]	0	
COc1ccc(C(=O)N2CCN(c3ncccn3)CC2)cc1C#Cc1ccccc1 [Compound 112, 2-{4-[4-methoxy-3-(phenylethynyl)benzoyl]piperazin-1-yl}pyrimidine]	90	7.20
COc1ccc(C(=O)N2CCN(c3ccc(C#N)cn3)CC2)cc1C#Cc1ccccc1 [Compound 113, 6-{4-[4-methoxy-3-(phenylethynyl)benzoyl]piperazin-1-yl}nicotinonitrile]	81	6.45
COc1ccc(C(=O)N2CCN(c3ccc(C(F)(F)F)cn3)CC2)cc1C#Cc1ccccc1 [Compound 114, 1-[4-methoxy-3-(phenylethynyl)benzoyl]-4-[5-(trifluoromethyl)pyridin-2-yl]piperazine]	26	
COc1ccc(C(=O)N2CCN(c3cc(C)ccn3)CC2)cc1C#Cc1ccccc1 [Compound 115, 1-[4-methoxy-3-(phenylethynyl)benzoyl]-4-(4-methylpyridin-2-yl]piperazine]	93	8.50
COc1ccc(C(=O)N2CCN(c3cccc(C)n3)CC2)cc1C#Cc1ccccc1 [Compound 116, 1-[4-methoxy-3-(phenylethynyl)benzoyl]-4-(6-methylpyridin-2-yl]piperazine]	77	6.07
COc1ccc(C(=O)N2CCN(c3cccc(C(F)(F)F)n3)CC2)cc1C#Cc1ccccc1 [Compound 117, 1-[4-methoxy-3-(phenylethynyl)benzoyl]-4-[6-(trifluoromethyl)pyridin-2-yl]piperazine]	35	
COc1ccc(C(=O)N2CCN(c3ncccc3C#N)CC2)cc1C#Cc1ccccc1 [Compound 118, 2-{4-[4-methoxy-3-(phenylethynyl)benzoyl]piperazin-1-yl}nicotinonitrile]	78	5.75
COc1ccc(C(=O)N2CCN(c3nc(C)cc(C)n3)CC2)cc1C#Cc1ccccc1 [Compound 119, 2-{4-[4-methoxy-3-(phenylethynyl)benzoyl]piperazin-1-yl}-4,6-dimethylpyrimidine]	35	
O=C(c1ccnc(C#Cc2ccccc2)c1)N1CCN(c2ncccn2)CC1 [Compound 120, 2-{4-[2-(phenylethynyl)isonicotinoyl]piperazin-1-yl}pyrimidine]	49	5.54
O=C(c1ccnc(C#Cc2ccccc2)c1)N1CCN(c2ccccn2)CC1 [Compound 121, 1-[2-(phenylethynyl)isonicotinoyl]-4-pyridin-2-ylpiperazine]	72	5.95
N#Cc1ccc(N2CCN(C(=O)c3ccnc(C#Cc4ccccc4)c3)CC2)nc1 [Compound 122, 6-{4-[2-(phenylethynyl)isonicotinoyl]piperazin-1-yl}nicotinonitrile]	0	
O=C(c1ccnc(C#Cc2ccccc2)c1)N1CCN(c2ccc(C(F)(F)F)cn2)CC1 [Compound 123, 1-[2-(phenylethynyl)isonicotinoyl]-4-[5-(trifluoromethyl)pyridin-2-yl]piperazine]	0	
